Measurements: article PMC6390583 (BMC rheumatology, 2018)

Columns and labels:
[1] = tested on: adjuvant induced arthritis; experiment: Rat adjuvant-induced arthritis (AIA) model; type: in vivo
[2] = tested on: reticulocyte deployment; experiment: Epo induced reticulocyte deployment assay; type: in vivo; details: rat, Epo challenge, highest concentration tested
Experimental: Naïve male Lewis rats were injected intravenously with either PBS or 1000 IU of epoetin α (Procrit®, Janssen Products, LP, Horsham, PA) for two consecutive days. Reticulocytes were measured on day 4 by flow cytometry using thiozole orange as a dye as previously described.

[3] = tested on: IL-7 driven pSTAT5; experiment: Clinical ex vivo IL-7 stimulation of whole blood, pSTAT5; type: in vivo; details: healthy volunteers, 5 mg tofacitinib, 1 h post dose
Experimental: (§1) Recombinant human IL-6 (400 ng/ml), or IL-7 (400 ng/ml), (R&D Systems, Minneapolis, MN) was added to blood and incubated for 10 min at 37°C. Surface antibodies were added (CD14-APC, CD3-fluorescein isothiocyanate [FITC]; BD Biosciences, San Jose, CA) and incubated on ice for an additional 20 min. Samples were lysed (Lyse/Fix, BD Biosciences, San Jose, CA) and incubated for 10 min at 37°C. Samples were washed and stored at − 70°C. For intracellular staining, samples were thawed, washed, and resuspended in BD Perm buffer III (BD Biosciences, San Jose, CA) on ice for 30 min. Samples were washed and stained with pSTAT5-PE or pSTAT3-PE (BD Biosciences, San Jose, CA) for 60 min at room temperature and then analyzed immediately on a FACSCalibur. Geometric means were determined using FlowJo analysis software.

[4] = tested on: CD3-/CD16+/CD56+ NK cells; experiment: Circulating NK cell analysis after 14 days dosing; type: in vivo, rat
Experimental: Blood was collected and stained using BD MultiTest IMK kit (BD Biosciences, San Jose, CA) per manufacturer’s instructions. NK cell numbers were determined by using FlowJo analysis software (FlowJo, LLC, Ashland, OR) and by examining the CD3^−/CD16^+/CD56^+ population. The number of cells/μL was calculated by using the following equation: (# events in cell population/# of events in absolute bead count region) × (# beads per test/test volume), with the value beads per test indicated on the BD Trucount tube label.

[5] = tested on: IL-6 induced pSTAT3; experiment: Clinical ex vivo IL-6 stimulation of whole blood, pSTAT3; type: in vivo, healthy volunteers; details: healthy volunteers, 5 mg of tofacitinib, 1 h post dose
Experimental: as §1

AUC60 for decrease of circulating NK cell numbers ([4]; naive rats dosed orally for 14 days): 1230 ng·h/mL
SMILES: C[C@@H]1CCN(C(=O)CC#N)C[C@@H]1N(C)c1ncnc2[nH]ccc12 [tofacitinib, reference compound]
Reduction in paw swelling at clinical AUC exposures ([1]; exposure associated with 10 mg BID of tofacitinib): ~ 60%
AUC60, AUC0-12 drug concentration necessary to achieve 60% inhibition of paw swelling ([1]; oral BID): 1205 ng·h/mL
Effect on paw swelling ([1]; oral, dosed from day 7): dose-responsive efficacy
Maximal inhibition of reticulocyte deployment [2]: > 40%
Inhibition of IL-7 driven pSTAT5 [3]: ~ 70%
Decrease in circulating NK cells at AUC60 ([4]; rat, at AUC60 of paw swelling): 70%
Inhibition of IL-6 induced pSTAT3 [5]: ~ 50%
